Test results published in article PMC11845477, “Exploring the principles behind antibiotics with limited resistance” (Nature Communications, 2025).
Where two headings read alike, the source gives them in different places. Where a SMILES comes first, the peptide text is derived from it. Bridges are numbered along the chain shown (N, C = ends). [ ]: non-standard residue; d: D form. The star is where a group is joined. X2 = CC[C@H](C)CCCCC(=O)*; Dab = NCC[C@H](N)C(=O)O

How the values were obtained:
[1] = test system: T1, P. aeruginosa ATCC BAA-3107; assay: microbe, parasite or virus in culture; set-up: Serial broth microdilution MIC (CLSI), OD600 below 0.05, 384-well plates, MHB medium; conditions: Pseudomonas aeruginosa, ATCCBAA3107, 18 h; ancestor strain before evolution
T1 construct: ATCC BAA-3107
Protocol: A final concentration of 5 × 10^5 bacterial cells per mL were inoculated into each well containing 60 µL MHB medium. Bacterial cultures were incubated at 37 °C with continuous shaking (Infors shaker, 900 rpm with 3 mm throw) for 18 hours (2 replicates from each). Cell growth was monitored by measuring the optical density (OD600 values, using Biotek Synergy microplate reader). MIC was defined as the antibiotic concentration of complete growth inhibition (i.e., OD600 < 0.05). Relative MIC was calculated as follows:1 relativeMIC=MICevolved/MICancestor This study focused on multiple bacterial strains, as follows. For the FoR and ALE experiments, 2 strains per species were chosen: E. coli ATCC 25922, K. pneumoniae ATCC 10031, A. baumannii ATCC 17978, and P. aeruginosa ATCC BAA-3107 as sensitive (SEN) strains, and E. coli NCTC13846, K. pneumoniae ATCC 700603, A. baumannii ATCC BAA-1605 and P. aeruginosa LESB58 as multi-drug resistant (MDR) strains. Functional metagenomic screens were performed with E. coli ATCC 25922 and K. pneumoniae ATCC 10031 strains. To determine the dose-kill properties of the different antibiotics, an E. coli strain (ATCC 25922) expressing a yellow fluorescent protein (pZS2R, YFP, CHL^R) and a red fluorescent protein (pZS2R, mCherry, CHL^R) was used.

[2] = test system: A. baumannii ATCC 17978 (SEN) and A. baumannii ATCC BAA-1605 (MDR); set-up: method as in PMID 39805953; conditions: cited from earlier work
[3] = test system: E. coli ATCC 25922 (SEN) and E. coli NCTC13846 (MDR); conditions: E. coli sensitive strain, after 60 days of evolution; cited from earlier work
Description: (§1) Using the same set of bacterial strains, we initiated adaptive laboratory evolution with the aim to maximize the level of antibiotic resistance in the populations achieved during a longer, but fixed time period. As expected, resistance levels were generally much higher than those observed in FoR assay. […] For instance, after 60 days of evolution, resistance levels increased by a maximum of fourfold in A. baumannii and in the E. coli sensitive strain e ...

[4] = test system: A. baumannii ATCC 17978 (SEN) and A. baumannii ATCC BAA-1605 (MDR); conditions: after 60 days of evolution; cited from earlier work
Description: as §1

Nc1nc(-n2cc(C(=O)O)c(=O)c3cc(F)c(N4CC(O)C4)c(Cl)c32)c(F)cc1F [Delafloxacin]
MIC [1]: 0.0156 µg/mL

CC[C@H](C)CCCCC(=O)N[C@@H](CCN)C(=O)N[C@H](C(=O)N[C@@H](CCN)C(=O)N[C@H]1CCNC(=O)[C@H]([C@@H](C)O)NC(=O)[C@H](CCN)NC(=O)[C@H](CCN)NC(=O)[C@H](CC(C)C)NC(=O)[C@@H](Cc2ccccc2)NC(=O)[C@H](CCN)NC1=O)[C@@H](C)O [Polymyxin B] (X2-[Dab]T[Dab][Dab][Dab][dF]L[Dab][Dab]T; lactam 4-C (inferred); N-terminus assumed)
resistance level (relative MIC) after FoR assay ([2]; A. baumannii multidrug-resistant (MDR) strain): more than 128 fold | resistance level (relative MIC) after FoR assay ([2]; A. baumannii sensitive strain): no resistant mutants emerged

CC(C)c1ccc(Cn2ccc3c4c(N)nc(NC5CC5)nc4ccc32)cc1 [SCH79797]
increase in resistance level after adaptive laboratory evolution [3]: fourfold | increase in resistance level after adaptive laboratory evolution [4]: fourfold
